The values below come from patent US9073863B2, “Cyanoquinoline compounds having activity in correcting mutant-CFTR processing and increasing ion transport and uses thereof” (The Regents of the University of California, priority 2011, dated 2015).

Common to all, as to type: cell-based
The target in test [1] is T1, ΔF508-CFTR (Homo sapiens, UniProt P13569, DEL508-508).
T1 construct: expressed in transfected cells; host or cells: Fischer rat thyroid (FRT) epithelial cells, stably transfected
The test is described as follows: CFTR immunoblot of ΔF508-CFTR expressing FRT cells. As to conditions: 24 h at 37° C. As to the method:
CFTR Immunoblot. DF508-CFTR expressing FRT cells grown on 6-well plates were treated with Corr-4a ([…]), Compound 22 […] or negative control at 37° C. for 24 h. After treatment, cells were washed with PBS and lysed in 20 mM Hepes (pH 7), 150 mM NaCl, 1 mM EGTA and 1% Igepal containing Complete Protease Inhibitor Cocktail (Roche). After pre-clearing, lysates were subjected to SDS-PAGE and analyzed by immunoblot. Proteins were immunodetected using a mouse monoclonal anti-CFTR antibody (M3A7, Millipore) followed by HRP-conjugated anti-mouse IgG, and visualized by chemiluminescence (ECL Plus, Amersham).
The action of Compound 22 as corrector of defective ΔF508-CFTR cellular processing was verified by CFTR immunoblot analysis (FIG. 4C). Wildtype CFTR was detected as a strong band at 170 kDa (band C), corresponding to complex glycosylated CFTR. […] Band B, which corresponds to core-glycosylated ΔF508-CFTR, was also seen.

For test [2], the target named is T1, ΔF508-CFTR. Nature of the test: Potentiator assay by YFP/iodide fluorescence quenching in ΔF508-CFTR expressing A549 cells. As to the method:
Representative fluorescence quenching curves (FIG. 6B (top)) shown with deduced Compound 22 and genistein concentration dependence (FIG. 6B (bottom), SEM, n=4). Fluorescence plate reader assays in FIG. 6B confirmed that Compound 22 activated G551D-CFTR in the presence of forskolin, with lower maximal efficacy than genistein.
To test whether Compound 22 is active in a different cell background, potentiator and corrector assays were performed in ΔF508-CFTR transfected A549 cells, which are of human lung epithelial origin. […] Apparent EC50 for Compound 22 potentiator activity was about 8 μM (FIG. 6B). […] (FIG. 6C, top). Compound 22 was further tested for corrector activity in A549 cells under the low-temperature synergy condition; however, DF508-CFTR was fully activated by forskolin ([…]) and genistein ([…]) in this cell model (FIG. 6C, bottom).

The target in the next test is T2, wildtype CFTR (Homo sapiens, UniProt P13569).
T2 construct: expressed in transfected cells; host or cells: Fischer rat thyroid (FRT) epithelial cells, stably transfected
The test is described as follows: Short-circuit current in FRT cells expressing wildtype CFTR. As to conditions: added after 0.25 or 0.5 μM forskolin. As to the method:
To further investigate Compound 22 potentiator action, short-circuit current was measured in FRT cells expressing wildtype CFTR (FIG. 5B). Studies were done as in FIG. 5A except that low concentrations of forskolin (0-0.5 μM) were used because higher concentrations fully activate wildtype CFTR and thus would mask Compound 22 potentiator action. As found for ΔF508-CFTR, there was little effect of Compound 22 in the absence of forskolin. In each experiment, after Compound 22 additions, 10 μM forskolin was added to fully activate wildtype CFTR, followed by 50 μM genistein, which had little effect, followed by 10 μM CFTRinh-172, which inhibited all chloride current.

Test [3] has as its target T1, ΔF508-CFTR. The test is described as follows: Corrector assay, YFP fluorescence plate reader iodide influx in ΔF508-CFTR expressing FRT cells. Summed up:
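Corrector mode: cells treated 18–24 h at 37 °C with compound (25 μM screen, 0–25 μM dose-response), then 10 min forskolin 20 μM + genistein 50 μM. Potentiator mode: 27 °C-rescued cells given forskolin 20 μM + compound (0–25 or 0–50 μM) for 10 min. Initial iodide influx rate from exponential fit of YFP quenching, normalized to background-subtracted initial fluorescence.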

T1 sequence (P13569 with tags, fused parts or gaps DEL508-508): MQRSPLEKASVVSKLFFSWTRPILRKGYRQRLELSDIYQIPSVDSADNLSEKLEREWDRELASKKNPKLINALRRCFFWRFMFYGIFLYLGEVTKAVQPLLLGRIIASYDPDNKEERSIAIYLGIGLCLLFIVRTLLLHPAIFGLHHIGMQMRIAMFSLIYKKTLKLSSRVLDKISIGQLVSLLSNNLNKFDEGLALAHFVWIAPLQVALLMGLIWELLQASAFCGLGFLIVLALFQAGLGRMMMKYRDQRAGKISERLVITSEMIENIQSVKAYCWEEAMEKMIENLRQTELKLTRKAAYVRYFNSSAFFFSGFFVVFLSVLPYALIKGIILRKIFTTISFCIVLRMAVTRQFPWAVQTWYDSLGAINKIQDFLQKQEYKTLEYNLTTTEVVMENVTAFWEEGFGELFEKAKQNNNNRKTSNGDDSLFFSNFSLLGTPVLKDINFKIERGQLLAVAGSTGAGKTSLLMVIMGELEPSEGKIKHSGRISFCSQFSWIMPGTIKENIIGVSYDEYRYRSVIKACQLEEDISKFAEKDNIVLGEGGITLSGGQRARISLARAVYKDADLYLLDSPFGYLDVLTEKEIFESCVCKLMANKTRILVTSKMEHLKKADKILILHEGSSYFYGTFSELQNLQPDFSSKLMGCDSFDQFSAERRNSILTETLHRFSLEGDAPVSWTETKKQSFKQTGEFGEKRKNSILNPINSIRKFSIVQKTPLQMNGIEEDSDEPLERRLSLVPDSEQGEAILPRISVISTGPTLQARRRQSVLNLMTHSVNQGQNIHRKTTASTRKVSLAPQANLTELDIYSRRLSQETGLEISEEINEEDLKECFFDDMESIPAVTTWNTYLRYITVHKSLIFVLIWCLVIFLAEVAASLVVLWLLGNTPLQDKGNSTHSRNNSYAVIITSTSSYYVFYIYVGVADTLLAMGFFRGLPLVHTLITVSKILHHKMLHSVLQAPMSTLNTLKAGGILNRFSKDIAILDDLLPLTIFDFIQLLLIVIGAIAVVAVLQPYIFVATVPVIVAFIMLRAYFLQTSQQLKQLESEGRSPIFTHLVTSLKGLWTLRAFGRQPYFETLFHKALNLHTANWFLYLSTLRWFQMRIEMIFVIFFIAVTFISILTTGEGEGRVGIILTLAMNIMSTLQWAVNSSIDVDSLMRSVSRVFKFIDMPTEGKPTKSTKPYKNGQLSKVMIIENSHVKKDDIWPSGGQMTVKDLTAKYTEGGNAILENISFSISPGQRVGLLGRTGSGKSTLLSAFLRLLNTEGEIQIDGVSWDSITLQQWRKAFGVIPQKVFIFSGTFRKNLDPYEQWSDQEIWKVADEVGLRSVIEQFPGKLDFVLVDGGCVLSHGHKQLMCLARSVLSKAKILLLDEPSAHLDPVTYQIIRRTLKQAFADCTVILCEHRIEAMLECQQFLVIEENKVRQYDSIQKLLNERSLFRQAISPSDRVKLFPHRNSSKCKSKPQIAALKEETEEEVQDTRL
T2 sequence (P13569 whole entry): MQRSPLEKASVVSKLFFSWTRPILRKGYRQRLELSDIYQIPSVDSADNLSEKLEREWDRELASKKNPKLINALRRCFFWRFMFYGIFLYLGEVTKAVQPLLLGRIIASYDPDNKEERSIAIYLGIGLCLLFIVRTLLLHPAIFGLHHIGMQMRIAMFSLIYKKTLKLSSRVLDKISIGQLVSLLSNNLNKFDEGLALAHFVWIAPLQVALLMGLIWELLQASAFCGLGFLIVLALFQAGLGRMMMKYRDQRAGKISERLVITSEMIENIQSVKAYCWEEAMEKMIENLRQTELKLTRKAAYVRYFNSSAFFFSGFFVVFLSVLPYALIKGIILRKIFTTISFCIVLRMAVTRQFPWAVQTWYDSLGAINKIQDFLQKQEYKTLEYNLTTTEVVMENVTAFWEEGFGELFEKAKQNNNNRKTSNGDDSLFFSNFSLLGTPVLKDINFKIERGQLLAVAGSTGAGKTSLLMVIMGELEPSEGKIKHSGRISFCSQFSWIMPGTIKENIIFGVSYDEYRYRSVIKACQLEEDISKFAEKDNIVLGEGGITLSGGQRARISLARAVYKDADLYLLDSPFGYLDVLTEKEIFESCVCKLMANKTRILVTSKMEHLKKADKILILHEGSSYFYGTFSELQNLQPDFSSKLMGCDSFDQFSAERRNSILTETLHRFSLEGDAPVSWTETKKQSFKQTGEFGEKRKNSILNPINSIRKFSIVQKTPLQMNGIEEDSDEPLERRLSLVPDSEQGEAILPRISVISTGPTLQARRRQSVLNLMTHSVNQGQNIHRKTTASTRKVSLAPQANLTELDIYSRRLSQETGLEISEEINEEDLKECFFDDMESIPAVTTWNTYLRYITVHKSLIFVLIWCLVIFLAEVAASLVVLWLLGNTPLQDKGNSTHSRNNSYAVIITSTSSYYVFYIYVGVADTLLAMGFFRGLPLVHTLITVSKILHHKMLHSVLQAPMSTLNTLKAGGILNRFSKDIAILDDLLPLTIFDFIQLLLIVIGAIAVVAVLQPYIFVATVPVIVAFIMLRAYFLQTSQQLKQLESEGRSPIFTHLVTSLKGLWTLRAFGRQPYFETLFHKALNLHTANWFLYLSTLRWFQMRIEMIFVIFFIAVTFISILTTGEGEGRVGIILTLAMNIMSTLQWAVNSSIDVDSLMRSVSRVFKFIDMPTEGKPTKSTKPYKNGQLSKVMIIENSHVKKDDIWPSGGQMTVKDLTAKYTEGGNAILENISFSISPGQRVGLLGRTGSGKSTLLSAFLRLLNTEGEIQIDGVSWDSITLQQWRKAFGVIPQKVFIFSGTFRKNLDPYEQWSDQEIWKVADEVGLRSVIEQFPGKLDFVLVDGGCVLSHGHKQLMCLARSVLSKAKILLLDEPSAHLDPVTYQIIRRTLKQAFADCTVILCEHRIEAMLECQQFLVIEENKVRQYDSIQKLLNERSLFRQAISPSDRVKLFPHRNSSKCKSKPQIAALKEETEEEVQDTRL

As usually defined, the EC50 is the concentration that produces a half-maximal response. On to `COc1cccc(C(=O)NCCNc2nc3cc(C)cc(C)c3cc2C#N)c1` [Compound 22, N-(2-((3-Cyano-5,7-dimethylquinolin-2-yl)amino)ethyl)-3-methoxybenzamide], for which, on ΔF508-CFTR [1], the “complex glycosylated CFTR (band C) in immunoblot” value is given as “band C was visualized”. Moreover, on ΔF508-CFTR [2], the “potentiator activity in A549 cells, in words” value is reported as “comparable to that in FRT cells”. Moreover, the EC50 is ~8 µM on ΔF508-CFTR [2] (A549 cells, read-out: Apparent EC50 for potentiator activity) and ~10 µM on wildtype CFTR (read-out: EC50 of wildtype CFTR activation). Also, at wildtype CFTR, the “activation of wildtype CFTR, in words” value is “partially activated”. In addition, the “iodide influx after incubation at 27° C.” value on ΔF508-CFTR [3] (Compound 22 (20 µM) or Corr-4a (10 µM), 24 h, 27° C., vs low-temperature rescue control) was “substantially increased iodide influx”. Further, the “iodide influx after incubation at 37° C.” value on ΔF508-CFTR [3] (Compound 22 (20 µM) or Corr-4a (10 µM), 24 h, 37° C., with genistein) is given as “increased iodide influx”. Further, on ΔF508-CFTR [3] (concentration-dependence in corrector and potentiator I− influx assays (FIG. 2, FIG. 7)), the “corrector and potentiator activities, in words” value was “both corrector and potentiator activities”. For the same compound, on ΔF508-CFTR [3] (maximal concentrations of Compound 22 and Corr-4a, alone or in combination), the “additivity of corrector action with Corr-4a (iodide influx)” value was “significant additivity”.
